Laboratory results published in ChEMBL document CHEMBL1134048, “Novel antitumor artemisinin derivatives targeting G1 phase of the cell cycle” (Bioorg Med Chem Lett, 2001).

Assays:
[1] = system: P388; test: Percent of cells in sub-G1 phase (apoptotic cells) of cell cycle was determined after 21 hrs of incubation of P388 cells; type: functional, Mus musculus
[2] = system: P388; test: Ability to induce apoptosis after 21 hrs of incubation of P388 cells; type: functional, cell-based; conditions: Mus musculus
[3] = system: A549; test: In vitro inhibitory concentration required against human lung A549 carcinoma cells proliferation; type: functional, cell-based
[4] = system: P388; test: Percent of cells in G1 phase of cell cycle, was determined after 21 hrs of incubation of P388 cells; type: functional, Mus musculus
[5] = system: P388; test: In vitro inhibitory concentration required against murine P388 leukemic cells proliferation; type: functional, cell-based; conditions: Mus musculus
[6] = system: NIH3T3; test: In vitro inhibitory concentration required against NIH3T3 cells proliferation; type: functional, cell-based; conditions: Mus musculus
[7] = system: P388; test: Percent of cells in G1 phase of cell cycle was determined after 21 hrs of incubation of P388 cells; type: functional, Mus musculus

Compound: C[C@@H]1CCC2[C@@H](C)[C@@H](O[C@@H](C#N)c3ccccc3)O[C@@H]3O[C@]4(C)CCC1[C@@]23OO4 (stereo partly specified)
- Apoptosis [1]: 53%
- Concentration [2]: 500 nM
- IC50 [3]: 1.23 µM
- G1 [4]: 67%
- IC50 [5]: 0.238 µM

Compound: C[C@@H]1CCC2[C@@H](C)[C@@H](OCC#N)O[C@@H]3O[C@]4(C)CCC1[C@@]23OO4 (stereo partly specified)
- Apoptosis [1]: 7%
- Concentration [2]: 10000 nM
- IC50 [3]: 79.4 µM
- G1 [4]: 65%
- IC50 [5]: 1.85 µM

Compound: C[C@@H]1CCC2[C@@H](C)[C@@H](O[C@H](C#N)c3ccc(Br)cc3)O[C@@H]3O[C@]4(C)CCC1[C@@]23OO4 (stereo partly specified)
- IC50 [6]: 5120 µM
- Apoptosis [1]: 51%
- Concentration [2]: 25 nM
- IC50 [3]: 0.039 µM
- G1 [4]: 63%
- IC50 [5]: 0.011 µM

Compound: C[C@@H]1CCC2[C@@H](C)[C@@H](O[C@H](C#N)c3ccccc3)O[C@@H]3O[C@]4(C)CCC1[C@@]23OO4 (stereo partly specified)
- Apoptosis [1]: 45%
- Concentration [2]: 100 nM
- IC50 [3]: 0.662 µM
- G1 [7]: 61%
- IC50 [5]: 0.048 µM

Compound: C[C@@H]1CCC2[C@@H](C)[C@@H](OC(C#N)c3ccc(Br)cc3)O[C@@H]3O[C@]4(C)CCC1[C@@]23O4 (stereo partly specified)
- IC50 [3]: 42 µM
- IC50 [5]: 24.2 µM

Compound: C[C@@H]1CCC2[C@@H](C)[C@@H](O[C@@H](C#N)c3ccc(Br)cc3)O[C@@H]3O[C@]4(C)CCC1[C@@]23OO4 (stereo partly specified)
- IC50 [6]: 3050 µM
- Apoptosis [1]: 49%
- Concentration [2]: 25 nM
- IC50 [3]: 0.047 µM
- G1 [4]: 62%
- IC50 [5]: 0.012 µM

Compound: CC[C@]1(O)C[C@H]2CN(CCc3c([nH]c4ccccc34)[C@@](C(=O)OC)(c3cc4c(cc3OC)N(C=O)[C@H]3[C@@](O)(C(=O)OC)[C@H](OC(C)=O)[C@]5(CC)C=CCN6CC[C@]43[C@@H]65)C2)C1 [VINCRISTINE]
- IC50 [3]: 0.018 µM
- IC50 [5]: 0.002 µM
